Consider three molecules from patent US7473789B2, “9-(1′,5′-dimethyl-1′-vinyl -4′- hexenyl)-4-hydroxy-7H-furo[3,2-γ] [1] benzopyran-7-one as antibacterial agent” (Takasago International Corporation, priority 2004, dated 2009).

Common to all, as to format: cell-based
Assay [1] concerns Staphyrococcus aureus 209P IAM 12082. The assay can be described thus: MIC by Agar Dilution Test, Sa-3. To be noted: read-out: Minimum inhibitory concentration (MIC). The protocol: (§1) Minimum inhibitory concentration (MIC) was determined by Agar Dilution Test (ADT).
(§2) Samples were dissolved in ethanol or water (according to solubility of each sample) to carry out two-fold serial dilution. A hundred μl of the resultant was added to a 10 ml sterilized agar medium (skin-related bacteria and standard bacteria in Mueller-Hinton Medium (Difco), yeast and filamentous bacteria in Sabroud Medium (Difco) and anaerobic bacteria in Trypticase Soy agar(BBL)), well agitated, transferred to a 9 cmf petri dish and immobilized at room temperature. To this petri dish, a 27-spot microplanter MIT-P from Sakuma Seisakusho, LTD. was used to spot 1×10^5 cfu (colony forming unit) of skin-related bacteria and standard bacteria, and the resultants were cultured at 37° C. for 18 hours. Yeast and filamentous bacteria were spotted for 5000 cfu (except Cg-1 was 50˜100 cfu) and cultured at 27° C. for 72 hours. Anaerobic bacteria were cultured at 37° C. for 72 hours under anaerobic conditions (using BBL gas pack anaerobic system). After completion of cultivation, growth of each bacterium was compared with that in a petri dish with alcohol alone (blank). A concentration of a sample without a bacterium growth was determined as the minimum inhibitory concentration (MIC).
(§3) As comparative substances, butylparaben (BPHB) and triclosan were determined as well.
A general note: In agar dilution, organisms are placed on agar that contains the substance at set levels.

The test system of assay [2] is Malassezia furfur IFO 0656. Kind of assay: MIC by Agar Dilution Test, Mf-1. The following applies: read-out: Minimum inhibitory concentration (MIC). The protocol: as §1, §2, §3
Assay [3] deals with Staphyrococcus epidermidis var. h-6 Takasago isolate. The assay can be described thus: MIC by Agar Dilution Test, Se-2. To be noted: read-out: Minimum inhibitory concentration (MIC). The protocol:
as §1, §2, §3

Assay [4] relates to Corynebacterium minutissimum IFO 15361. Kind of assay: MIC by Agar Dilution Test, Cm-1. The following applies: read-out: Minimum inhibitory concentration (MIC). The protocol:
as §1, §2, §3

In assay [5] the test system is Staphyrococcus epidermidis ATCC 12228. Kind of assay: MIC by Agar Dilution Test, Se-3. The following applies: read-out: Minimum inhibitory concentration (MIC). The protocol: as §1, §2, §3
Assay [6] relates to Corynebacterium xerosis JCM 1324. Kind of assay: MIC by Agar Dilution Test, Cx-2. To be noted: read-out: Minimum inhibitory concentration (MIC). As to the method: as §1, §2, §3
For assay [7], the system named is Staphyrococcus aureus ATCC 6538. The assay can be described thus: MIC by Agar Dilution Test, Sa-4. To be noted: read-out: Minimum inhibitory concentration (MIC). As to the method:
as §1, §2, §3

For assay [8], the system named is Bacillus subtilis PCI 219 IFO 3134. The assay can be described thus: MIC by Agar Dilution Test, Bs-1. To be noted: read-out: Minimum inhibitory concentration (MIC). The protocol: as §1, §2, §3
Assay [9] deals with Staphyrococcus epidermidis JCM 2414. The assay can be described thus: MIC by Agar Dilution Test, Se-1. To be noted: read-out: Minimum inhibitory concentration (MIC). The protocol:
as §1, §2, §3

For assay [10], the system named is Porphyromonas gingivalis JCM 8525. Kind of assay: MIC by Agar Dilution Test, Pg-1. The following applies: read-out: Minimum inhibitory concentration (MIC). As to the method:
as §1, §2, §3

The test system of assay [11] is Actinomyces naeslundii JCM 8350. The assay can be described thus: MIC by Agar Dilution Test, Aa-1. The following applies: read-out: Minimum inhibitory concentration (MIC). As to the method:
as §1, §2, §3

Assay [12] concerns Bacteroides fragilis GM 7000 JCM 5560. The assay can be described thus: MIC by Agar Dilution Test, Bf-1. To be noted: read-out: Minimum inhibitory concentration (MIC). As to the method:
as §1, §2, §3

For assay [13], the system named is Streptococcus mutans JCM 5175. Kind of assay: MIC by Agar Dilution Test, Su-1. The following applies: read-out: Minimum inhibitory concentration (MIC). As to the method: as §1, §2, §3
Assay [14] deals with Propionibacterium acnes JCM 6473. Kind of assay: MIC by Agar Dilution Test, Pa-2. The following applies: Cutibacterium acnes, read-out: Minimum inhibitory concentration (MIC). As to the method: as §1, §2, §3
Assay [15] concerns Propionibacterium acnes ATCC 6919. The assay can be described thus: MIC by Agar Dilution Test, Pa-3. To be noted: Cutibacterium acnes, read-out: Minimum inhibitory concentration (MIC). As to the method: as §1, §2, §3
The test system of assay [16] is Actinomyces viscosus JCM 8352. Kind of assay: MIC by Agar Dilution Test, Av-1. To be noted: read-out: Minimum inhibitory concentration (MIC). As to the method: as §1, §2, §3
The subject of assay [17] is Fusobacterium nucleatum JCM 6328. Kind of assay: MIC by Agar Dilution Test, Fn-1. The following applies: read-out: Minimum inhibitory concentration (MIC). The protocol:
as §1, §2, §3

The subject of assay [18] is Prevotella intermedia JCM 6322. The assay can be described thus: MIC by Agar Dilution Test, Pt-1. To be noted: read-out: Minimum inhibitory concentration (MIC). The protocol: as §1, §2, §3

Structures are written as SMILES. ≈ marks a conversion by molar mass, not a printed value. Read-outs that look alike come from different tables or passages of the source.

As for `Oc1cc(Cl)ccc1Oc1ccc(Cl)cc1Cl` [Triclosan], the MIC in [1] (18 h) was found to be 1.6 µg/mL (≈ 5.53 µM); in assay [2] (72 h) it was 1.6 µg/mL (≈ 5.53 µM); in assay [3] (18 h), 1.6 µg/mL (≈ 5.53 µM); in [4] (IFO15361, 18 h), 1.6 µg/mL (≈ 5.53 µM); in assay [5] (18 h), 1.6 µg/mL (≈ 5.53 µM); in [6] (JCM1324, 18 h), 3.1 µg/mL (≈ 10.7 µM). For the same molecule, the MIC worked out at 1.6 µg/mL (≈ 5.53 µM) in assay [7] (18 h); 0.78 µg/mL (≈ 2.69 µM) in assay [8] (IFO3134, 18 h); 1.6 µg/mL (≈ 5.53 µM) in assay [9] (18 h).
Take `C=CC(C)(CCC=C(C)C)c1c2occc2c(O)c2ccc(=O)oc12` (stereo not drawn) [9-(1′,5′-dimethyl-1′-vinyl-4′-hexenyl)-4-hydroxy-7H-furo[3,2-γ][1]benzopyran-7-one]: the MIC in assay [1] (Sa-3, Mueller-Hinton Medium, 1×10^5 cfu, 37° C. for 18 hours) is 3.1 µg/mL (≈ 9.16 µM); in [10] (JCM8525, Pg-1, Trypticase Soy agar, 37° C. for 72 hours, anaerobic conditions), 1.6 µg/mL (≈ 4.73 µM); in assay [11] (JCM8350, Aa-1, Trypticase Soy agar, 37° C. for 72 hours, anaerobic conditions), 3.1 µg/mL (≈ 9.16 µM); in assay [2] (Mf-1 (yeast), Sabroud Medium, 5000 cfu, 27° C. for 72 hours), 3.1 µg/mL (≈ 9.16 µM); in assay [12] (JCM5560, Bf-1, Trypticase Soy agar, 37° C. for 72 hours, anaerobic conditions), 1.6 µg/mL (≈ 4.73 µM); in [13] (JCM5175, Su-1, Trypticase Soy agar, 37° C. for 72 hours, anaerobic conditions) it was 6.3 µg/mL (≈ 18.6 µM). For the same molecule, the MIC in [3] (Se-2, Mueller-Hinton Medium, 1×10^5 cfu, 37° C. for 18 hours) is 3.1 µg/mL (≈ 9.16 µM); in assay [14] (JCM6473, Pa-2, Trypticase Soy agar, 37° C. for 72 hours, anaerobic conditions), 3.1 µg/mL (≈ 9.16 µM); in assay [4] (IFO15361, Cm-1, Mueller-Hinton Medium, 1×10^5 cfu, 37° C. for 18 hours), 3.1 µg/mL (≈ 9.16 µM); in [5] (Se-3, Mueller-Hinton Medium, 1×10^5 cfu, 37° C. for 18 hours), 3.1 µg/mL (≈ 9.16 µM); in [6] (JCM1324, Cx-2, Mueller-Hinton Medium, 1×10^5 cfu, 37° C. for 18 hours) it was 3.1 µg/mL (≈ 9.16 µM); in [7] (Sa-4, Mueller-Hinton Medium, 1×10^5 cfu, 37° C. for 18 hours), 3.1 µg/mL (≈ 9.16 µM). Besides, the MIC is 3.1 µg/mL (≈ 9.16 µM) in [15] (ATCC6919, Pa-3, Trypticase Soy agar, 37° C. for 72 hours, anaerobic conditions); 3.1 µg/mL (≈ 9.16 µM) in assay [8] (IFO3134, Bs-1, Mueller-Hinton Medium, 1×10^5 cfu, 37° C. for 18 hours); 3.1 µg/mL (≈ 9.16 µM) in assay [16] (JCM8352, Av-1, Trypticase Soy agar, 37° C. for 72 hours, anaerobic conditions); 1.6 µg/mL (≈ 4.73 µM) in assay [17] (JCM6328, Fn-1, Trypticase Soy agar, 37° C. for 72 hours, anaerobic conditions); 3.1 µg/mL (≈ 9.16 µM) in assay [9] (Se-1, Mueller-Hinton Medium, 1×10^5 cfu, 37° C. for 18 hours); 1.6 µg/mL (≈ 4.73 µM) in assay [18] (JCM6322, Pt-1, Trypticase Soy agar, 37° C. for 72 hours, anaerobic conditions).
In the case of `CCCCOC(=O)c1ccc(O)cc1` [Butylparaben, butylparaben], the MIC was 100 µg/mL (≈ 515 µM) in [1] (18 h); 50 µg/mL (≈ 257 µM) in [10] (JCM8525, 72 h); 100 µg/mL (≈ 515 µM) in assay [11] (JCM8350, 72 h); 100 µg/mL (≈ 515 µM) in assay [2] (72 h); 50 µg/mL (≈ 257 µM) in [12] (JCM5560, 72 h); 200 µg/mL (≈ 1030 µM) in assay [13] (JCM5175, 72 h). For the same molecule, the MIC in assay [3] (18 h) worked out at 200 µg/mL (≈ 1030 µM); in assay [14] (JCM6473, 72 h), 100 µg/mL (≈ 515 µM); in assay [4] (IFO15361, 18 h) it was 200 µg/mL (≈ 1030 µM); in [5] (18 h) it was 200 µg/mL (≈ 1030 µM); in [6] (JCM1324, 18 h) it was 50 µg/mL (≈ 257 µM); in assay [7] (18 h) it was 200 µg/mL (≈ 1030 µM). Moreover, the MIC in assay [15] (ATCC6919, 72 h) was 100 µg/mL (≈ 515 µM); in [8] (IFO3134, 18 h), 200 µg/mL (≈ 1030 µM); in assay [16] (JCM8352, 72 h), 100 µg/mL (≈ 515 µM); in assay [17] (JCM6328, 72 h) it was 100 µg/mL (≈ 515 µM); in [9] (18 h) it was 200 µg/mL (≈ 1030 µM); in assay [18] (JCM6322, 72 h) it was 100 µg/mL (≈ 515 µM).
